Experimental data taken from patent US20260167637A1, “NLRP3 INFLAMMASOME INHIBITOR AND USE THEREOF” (TransThera Sciences (Nanjing), Inc., priority 2022, published 2026).

How the values were obtained:
[1] = Pharmacokinetic study in mice; type: in vivo, female C57BL/6J mice; conditions: female, C57BL/6J, mouse, plasma; for clearance: read-out: Cl—obs iv (clearance rate) (converted); for Vd: read-out: Vss iv (distribution volume); for bioavailability: po 10 mg/kg vs iv 5 mg/kg, read-out: F% (absolute bioavailability); for Tmax: median, read-out: Tmax po (time to peak plasma concentration); for Cmax: read-out: Cmax po (peak concentration)
Method: (§1) The compounds were prepared into solutions using a mixed vehicle composed of 5% dimethyl sulfoxide, 20% (30% solutol), and 75% normal saline. The compound solutions were intragastrically administered to female C57BL/6J mice at a dose of 10 mg/kg, and the blood collection time points were: 15 min, 30 min, 1 h, 2 h, 4 h, 6 h, 8 h, and 24 h.
as §1, with “intravenously injected into” for “intragastrically administered to”, “5” for “10”, “were: 5 min,” for “were:”
The samples to be tested were taken out from a −80° C. freezer, naturally thawed at room temperature, and then vortexed for 5 min.
Plasma samples of 10 μL from different individuals were accurately pipetted into 1.5 mL centrifuge tubes.
900 μL of a 100 ng/mL internal standard working solution (a solution of tolbutamide in acetonitrile) was added, and the mixture was well mixed.
After 5 min of vortexing, centrifugation was performed at 12,000 rpm for 5 min.
50 μL of the supernatant was accurately pipetted into a 96-well plate to which water was added in advance at 150 μL/well.
After 5 min of vortexing, LC-MS/MS analysis was performed.
The results of the test substance concentrations were output by Analyst 1.6.3 of AB Sciex.
Parameters such as mean, standard deviation, and coefficient of variation (excluding those output directly by Analyst 1.6.3) were calculated using Microsoft Excel. PK parameters were calculated using WinNonlin Phenoix 8.2 software NCA (Tmax was a median).

[2] = Stability in canine liver microsomes; type: in vitro ADME; conditions: canine liver microsomes 0.5 mg protein/mL, 1 μM test substance, β-NADPH 1 mM, 37° C.; for microsomal CLint at 1 μM / half-life at 1 μM: dog; for half-life at 1 μM: read-out: Canine t1/2
Method: (§2) Experimental Example 2: Evaluation of Stability of Compounds Disclosed Herein in Liver Microsomes
(§3) Composition of experimental incubation system:
(§4) An appropriate amount of the compound was precisely weighed out and dissolved in DMSO to prepare a 10.0 mM stock solution. The 10.0 mM stock solution was diluted with DMSO to 1.0 mM, and then diluted with phosphate buffer (containing 3 mM MgCl2) to prepare a 10 μM test substance working solution for later use (DMSO content in the reaction system: 0.1%).
(§5) An appropriate amount of β-NADPH was precisely weighed out and then prepared into a 5 mM β-NADPH working solution using phosphate buffer (containing 3 mM MgCl2) for later use.
(§6) (1) The liver microsomes (20 mg protein/mL) were taken out from a −80° C. freezer and pre-incubated on a 37° C. water bath thermostatic oscillator for 3 min to thaw for later use.
(§7) (2) A mixed solution of the incubation system (without β-NADPH) was prepared according to “composition of experimental incubation system” described above, and pre-incubated on a 37° C. water bath thermostatic oscillator for 2 min.
(§8) (3) Control group (without β-NADPH): 10 μL of phosphate buffer (containing 3 mM MgCl2) and 40 μL of the mixed solution of the incubation system in step (2) were taken and mixed, and the mixture was vortexed for 30 s and mixed well, resulting in a total reaction volume of 50 μL; the sample was duplicated. The mixture was placed on a 37° C. water bath thermostatic oscillator for incubation, and timing was started, with termination time points set at 0 min and 60 min.
(§9) (4) Sample group: 10 μL of the β-NADPH solution (5 mM) and 40 μL of the mixed solution in step (2) were taken and mixed, resulting in a total reaction volume of 50 μL; the mixture was vortexed for 30 s and mixed well; the sample was duplicated. The mixture was placed on a 37° C. water bath thermostatic oscillator for incubation, and timing was started, with termination time points set at 0 min, 5 min, 10 min, 20 min, 30 min, and 60 min.
(§10) (5) The mixture was vortexed for 5 min and then centrifuged at 4000 rpm for 10 min.
(§11) (6) 50 μL of the supernatant was taken and added to 150 μL of water, and the resulting mixture was vortexed and mixed well before LC/MS/MS analysis.
(§12) The half-life (t1/2) and clearance rate (CL) were calculated using the following first-order kinetic formula
(§13) Notes: k denotes the slope of the logarithm of the remaining amount of a compound vs. time, and Vd denotes apparent volume of distribution.

THP-1 cell NLRP3 = target: T1, THP-1 cell NLRP3 (Homo sapiens, UniProt Q96P20); test: Inhibitory activity against cell NLRP3 inflammasomes in THP-1 cells (LPS + nigericin, ELISA of supernatant); type: cell-based; conditions: PMA-differentiated THP-1 cells, LPS 500 ng/mL 3 h, compound 1 h, nigericin 30 min; human IL-10 (so in the source) in supernatant by ELISA
T1 construct: endogenous in cells; host or cells: THP-1 cells, PMA-differentiated, stimulated with LPS and nigericin
Method: Experimental Example 1: Assay for Inhibitory Activity of Compounds Disclosed Herein Against Cell NLRP3 Inflammasomes
Test substances: The compounds of the present disclosure, prepared according to the methods described in the examples.
THP-1 is an immortalized human […] cell line.
Instrument: microplate reader (made by PE)
Assay Method: 1. THP-1 cells were cultured in 1640 complete medium (500 mL of 1640+56 mL of FBS+560 μL of 1000×P/S+2 μL of mercaptoethanol), and cells at passages 3-20 were used.
2. Culture plate coating: 100 μL of polylysine solution was added to a 96-well cell culture plate. After 30 min of incubation at 37° C., the solution was discarded, and the plate was washed with PBS twice for later use.
3. Induction of THP-1 differentiation: THP-1 cells were resuspended in an appropriate amount of complete medium containing 10 ng/mL PMA to form a cell suspension with a density of 5×10^5 cells/mL. The suspension was added to the 96-well plate at 100 μL/well, and the plate was incubated overnight in a 37° C. carbon dioxide cell incubator for 16 h.
4. Stimulation of THP-1: • a. Serum-free THP-1 culture medium containing LPS was added, with the final concentration being 500 ng/mL. The plate was incubated in a 37° C. carbon dioxide cell incubator for 3 h. • b. Mother liquors of the compounds to be tested with gradient concentrations were prepared with DMSO, added to the cells, and well mixed. Dilution was finally performed in a 1:1000 ratio. The plate was incubated in a 37° C. carbon dioxide cell incubator for 1 h. • c. Nigericin was added to each well, with the final concentration being […]. The plate was incubated in a carbon dioxide cell incubator at 37° C. for 30 min. • d. The medium in the wells was transferred to a new culture plate, and after 5 min of centrifugation at 3000 rpm, the supernatant was transferred to a new 96-well plate. • e. The content of human […] in the collected cell culture supernatant samples was determined with a commercial ELISA kit by following the instructions.

[3] = Stability in rat liver microsomes; type: in vitro ADME; conditions: rat liver microsomes 0.5 mg protein/mL, 1 μM test substance, β-NADPH 1 mM, 37° C.; for half-life at 1 μM: read-out: Rat t1/2
Method: as §2, §3, §4, §5, §6, §7, §8, §9, §10, §11, §12, §13

[4] = Pharmacokinetic study in male SD rats; type: in vivo; conditions: rat, plasma
Method: Experimental Example 4: Pharmacokinetic Study of Compounds in Male SD Rats
as §1, with “administered to male SD rats at a” for “administered to female C57BL/6J mice at a”, “dose of 5.0 mg/kg, and” for “dose of 10 mg/kg, and”, “8 h, 10 h, and 24” for “8 h, and 24”
as §1, with “intravenously injected into male SD rats” for “intragastrically administered to female C57BL/6J mice”, “1.0” for “10”, “were: 5 min,” for “were:”, “4h,” for “4 h,”, “8h, 10” for “8”
Intravenous catheterization was performed on the animals the day before the administration. After the administration, blood samples of about 300 μL were collected from the jugular vein and placed into anticoagulation tubes containing EDTA-K2. The blood samples were centrifuged at 5000 rpm at 4° C. for 10 min to give plasma samples. The plasma samples were prepared within 30 min after blood collection. The plasma samples were stored in a −80° C. freezer before testing.

[5] = iv 5 mg/kg, read-out: AUClast iv (0-24 h)
[6] = iv 5 mg/kg, read-out: tz1/2 iv (terminal half-life) (converted)
[7] = po 10 mg/kg, read-out: AUClast po (0-24 h)
[8] = po 10 mg/kg, read-out: tz1/2 po (terminal half-life) (converted)

T1 sequence (Q96P20 whole entry): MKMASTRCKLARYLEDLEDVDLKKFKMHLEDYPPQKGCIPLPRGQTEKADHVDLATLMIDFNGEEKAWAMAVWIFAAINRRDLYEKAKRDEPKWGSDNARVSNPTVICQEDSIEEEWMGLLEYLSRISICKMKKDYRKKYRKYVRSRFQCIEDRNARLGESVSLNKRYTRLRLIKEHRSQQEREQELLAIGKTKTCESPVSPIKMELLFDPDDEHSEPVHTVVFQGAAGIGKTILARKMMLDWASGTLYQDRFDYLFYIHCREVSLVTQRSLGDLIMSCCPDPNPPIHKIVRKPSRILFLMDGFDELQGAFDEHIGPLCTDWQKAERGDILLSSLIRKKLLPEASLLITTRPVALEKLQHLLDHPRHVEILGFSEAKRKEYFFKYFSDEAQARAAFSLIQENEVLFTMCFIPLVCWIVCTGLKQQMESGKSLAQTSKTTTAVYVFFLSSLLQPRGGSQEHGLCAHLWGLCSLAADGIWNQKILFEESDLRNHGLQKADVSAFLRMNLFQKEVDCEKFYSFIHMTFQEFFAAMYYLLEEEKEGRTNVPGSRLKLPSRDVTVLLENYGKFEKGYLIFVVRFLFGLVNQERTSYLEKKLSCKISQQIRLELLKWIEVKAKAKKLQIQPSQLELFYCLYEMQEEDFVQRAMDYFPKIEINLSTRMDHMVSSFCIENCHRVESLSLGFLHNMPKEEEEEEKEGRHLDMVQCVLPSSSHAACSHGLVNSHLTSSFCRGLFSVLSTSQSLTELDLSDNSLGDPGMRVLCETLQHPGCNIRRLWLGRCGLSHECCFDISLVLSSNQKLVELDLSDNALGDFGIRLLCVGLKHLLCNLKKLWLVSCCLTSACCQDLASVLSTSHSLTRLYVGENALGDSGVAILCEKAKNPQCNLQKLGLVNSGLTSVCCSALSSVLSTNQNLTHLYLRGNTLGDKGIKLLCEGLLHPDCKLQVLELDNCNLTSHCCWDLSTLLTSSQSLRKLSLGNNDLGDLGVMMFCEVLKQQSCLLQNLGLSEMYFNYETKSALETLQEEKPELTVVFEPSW

AUC(0-t) [1, 5] [ng·h/mL] | clearance ([1]; iv 5 mg/kg) [mL/min/kg] | Vd ([1]; iv 5 mg/kg) [L/kg] | half-life [1, 6] [h] | bioavailability [1] [%] | Tmax ([1]; po 10 mg/kg) [h] | AUC(0-t) [1, 7] [ng·h/mL] | Cmax ([1]; po 10 mg/kg) [ng/mL] | half-life [1, 8] [h] | IC50 (THP-1 cell NLRP3) [nM] | microsomal CLint at 1 μM [3] [µL/min/mg] | half-life at 1 μM [3] [h] | microsomal CLint at 1 μM [2] [µL/min/mg] | half-life at 1 μM [2] [h] | SMILES | also measured
15100 | 5.32 | 1.85 | 5.55 | 94.4 | 1 | 29100 | 3540 | 4.26 | 0.6 | 4.6 | 5.02 | 5.2 | 4.45 | [2H]C([2H])([2H])N1CCC[C@@H](Nc2cc(C3CC3)c(-c3ccc(C#C)cc3O)nn2)C1 [Compound 85, (R)-2-(4-cyclopropyl-6-((1-(methyl-d3)piperidin-3-yl)amino)pyridazin-3-yl)-5-ethynylphenol] | 
4460 | 18 | 2.41 | 1.65 | 68.4 | 0.25 | 6280 | 1720 | 3.63 | 2.4 | 8.4 | 2.75 | 2.8 | 8.25 | C#Cc1ccc(-c2nnc(N[C@@H]3CCCN(CCO)C3)nc2C2CC2)c(O)c1 [Compound 100, (R)-2-(5-cyclopropyl-3-((1-(2-hydroxyethyl)piperidin-3-yl)amino)-1,2,4-triazin-6-yl)-5-ethynylphenol] | 

More lines, now with the values behind:

SMILES | AUC(0-t) [1, 5] [ng·h/mL] | clearance ([1]; iv 5 mg/kg) [mL/min/kg] | Vd ([1]; iv 5 mg/kg) [L/kg] | half-life [1, 6] [h] | bioavailability [1] [%] | Tmax ([1]; po 10 mg/kg) [h] | AUC(0-t) [1, 7] [ng·h/mL] | Cmax ([1]; po 10 mg/kg) [ng/mL] | half-life [1, 8] [h] | IC50 (THP-1 cell NLRP3) [nM] | microsomal CLint at 1 μM [3] [µL/min/mg] | half-life at 1 μM [3] [h] | microsomal CLint at 1 μM [2] [µL/min/mg] | half-life at 1 μM [2] [h] | also measured
CC#Cc1ccc(-c2nnc(N[C@@H]3CCCN(C)C3)c(=O)n2C)c(O)c1 [Compound 27, (R)-3-(2-hydroxy-4-(prop-1-yn-1-yl)phenyl)-4-methyl-6-((1-methylpiperidin-3-yl)amino)-1,2,4-triazin-5(4H)-one] | 6830 | 11.8 | 2.39 | 9.55 | 77.7 | 0.25 | 10900 | 5520 | 3.99 | 5.2 | 6.2 | 3.73 |  |  | Canine t1/2 [2]: →∞
C#Cc1ccc(-c2nnc(N[C@@H]3CCCN(CCO)C3)c(=O)n2C)c(O)c1 [Compound 42, (R)-3-(4-ethynyl-2-hydroxyphenyl)-6-((1-(2-hydroxyethyl)piperidin-3-yl)amino)-4-methyl-1,2,4-triazin-5(4H)-one] |  |  |  |  |  |  |  |  |  | 4.6 | 4.2 | 5.5 | 1.2 | 19.2 | AUC(0-t) ([4]; iv 1 mg/kg, read-out: AUClast iv (0-24 h)): 2490 ng·h/mL; clearance ([4]; iv 1 mg/kg, read-out: Cl—obs iv (clearance rate) (converted)): 6.65 mL/min/kg; Vd ([4]; iv 1 mg/kg, read-out: Vss iv (distribution volume)): 0.694 L/kg; half-life ([4]; iv 1 mg/kg, read-out: tz1/2 iv (terminal half-life) (converted)): 1.55 h; bioavailability ([4]; po 5 mg/kg vs iv 1 mg/kg, read-out: F% (absolute bioavailability)): 77.8%; Tmax ([4]; po 5 mg/kg, median, read-out: Tmax po (time to peak plasma concentration)): 1 h; AUC(0-t) ([4]; po 5 mg/kg, read-out: AUClast po (0-24 h)): 9720 ng·h/mL; Cmax ([4]; po 5 mg/kg, read-out: Cmax po (peak concentration)): 2490 ng/mL; half-life ([4]; po 5 mg/kg, read-out: tz1/2 po (terminal half-life) (converted)): 3.99 h
[2H]C([2H])([2H])N1CCC[C@@H](Nc2cc(C)c(-c3ccc(C#C)cc3O)nn2)C1 [Compound 84, (R)-5-ethynyl-2-(4-methyl-6-((1-(methyl-d3)piperidin-3-yl)amino)pyridazin-3-yl)phenol] | 5590 | 14.8 | 3.02 | 3.81 | 92.7 | 0.5 | 10400 | 1910 | 3.1 | 0.2 | 4 | 5.78 | 4 | 5.78 | 
